# Several values for one entry are separate records, joined by “and”; a condition that tells them apart may be missing. Equal values may be shown once. Read-outs that look alike come from different tables or passages of the source.
# What was measured:
# [1] = tested on: Y. enterocolitica; assay: microbe, parasite or virus in culture; format: cell-based
# [2] = tested on: S. aureus; format: cell-based, Staphylococcus aureus
# [3] = tested on: M. smegmatis; format: cell-based, Mycobacterium smegmatis; conditions: for antibacterial activity: M. smegmatis
# [4] = tested on: mammalian cells in culture; assay: Cytotoxicity in eukaryotic cell cultures; format: cell-based; conditions: human cells in culture
# [5] = tested on: Y. enterocolitica; assay: Disc diffusion sensitivity test; format: cell-based; conditions: disc ~50 μg MP
# [6] = tested on: N. meningitidis; assay: Disc diffusion sensitivity test; format: cell-based; conditions: disc ~50 μg MP
# [7] = tested on: S. marcescens; assay: Disc diffusion sensitivity test; format: cell-based, Serratia marcescens
# [8] = tested on: E. coli; assay: Disc diffusion sensitivity test; format: cell-based, Escherichia coli
# [9] = tested on: P. mirabills; assay: Disc diffusion sensitivity test; format: cell-based, Proteus mirabilis
# [10] = tested on: K. pneumoniae; assay: Disc diffusion sensitivity test; format: cell-based, Klebsiella pneumoniae
# [11] = tested on: K. oxytoca; assay: Disc diffusion sensitivity test; format: cell-based, Klebsiella oxytoca
# [12] = tested on: Ps. aeruginosa; assay: Disc diffusion sensitivity test; format: cell-based, Pseudomonas aeruginosa; conditions: disc ~50 μg MP; note: key: -: resistant; N: not determined
# [13] = tested on: C. freundii; assay: Disc diffusion sensitivity test; format: cell-based, Citrobacter freundii
# [14] = tested on: E. aerogenes; assay: Disc diffusion sensitivity test; format: cell-based, Enterobacter aerogenes
# [15] = tested on: F. menigosepticum; assay: Disc diffusion sensitivity test; format: cell-based, Flavobacterium meningosepticum
# [16] = tested on: S. aureus; assay: Disc diffusion sensitivity test; format: cell-based, Staphylococcus aureus
# [17] = tested on: B. subtilis; assay: Disc diffusion sensitivity test; format: cell-based, Bacillus subtilis; conditions: B. subtilis; disc ~50 μg MP
# [18] = tested on: S. pyogenes A; assay: Disc diffusion sensitivity test; format: cell-based, Streptococcus pyogenes; conditions: disc ~50 μg MP
# [19] = tested on: E. faecalis; assay: Disc diffusion sensitivity test; format: cell-based, Enterococcus faecalis; conditions: disc ~50 μg MP; note: key: -: resistant; N: not determined
# [20] = tested on: M. smegmatis; assay: Disc diffusion sensitivity test; format: cell-based, Mycobacterium smegmatis; conditions: disc ~50 μg MP
# [21] = tested on: M. bovis; format: cell-based, Mycobacterium bovis; conditions: disc ~50 μg MP
# [22] = tested on: M tuber. H37Rv; assay: Disc diffusion sensitivity test; format: cell-based, Mycobacterium tuberculosis; conditions: disc ~50 μg MP
# [23] = tested on: M tuber. H37Pa; assay: Disc diffusion sensitivity test; format: cell-based, Mycobacterium tuberculosis; conditions: disc ~50 μg MP
# [24] = tested on: S. crevisieae; assay: Disc diffusion sensitivity test; format: cell-based, Saccharomyces cerevisiae; conditions: S. cerevisiae; disc ~50 μg MP
# [25] = tested on: Staphylococcus carnosus; assay: Disc diffusion sensitivity test; format: cell-based; conditions: 50 μg disc
# [26] = tested on: Staphylococcus xylolus; assay: Disc diffusion sensitivity test; format: cell-based; conditions: 50 μg disc
# [27] = tested on: Y. pseudotuberculosis; format: cell-based
# [28] = tested on: Neisseria meningitidis; assay: Minimal inhibitory concentration; format: cell-based
# [29] = tested on: Bacillus subtilis; assay: Minimal inhibitory concentration; format: cell-based
# [30] = tested on: Streptococcus pyogenes JRS4; format: cell-based
# [31] = tested on: Mycobacterium bovis (BCG); format: cell-based
# [32] = tested on: E. coli; format: cell-based, Escherichia coli; conditions: E. coli DH-5 alpha hemA (Table 6)
# [33] = tested on: E. coli EB53 (hemPR^+); assay: Growth inhibition on Nutrient Broth Dipyridyl plates; conditions: NBD 0.1 mM plates
# [34] = tested on: patients; conditions: patients with compromised kidney function, high dosages; cited from earlier work
structure (smiles),measurement,setting,value
"C=Cc1c(C)c2[n]3c1C=C1N=C(C=c4c(C)c(C(=O)O)c([n]4[Ga]3[Cl])=C(CC(=O)O)C3=NC(=C2)C(C)C3CCC(=O)O)C(CC)=C1C (centres unmarked) [GA-Ce6, Ga-chlorin e6]",antibacterial activity,[1],significantly less active
same,MIC,[1]; in µg/mL,5 and 10
same,antibacterial activity,[2]; S. aureus,active
same,MIC,"[2]; S. aureus IR2419, dark (Table 10)",3.2 µg/mL
same,antibacterial activity,[3],active
same,MIC,"[3]; M. smegmatis LR222, dark (Table 10)",0.4 µg/mL
same,cytotoxicity,[4],cytotoxic to human cells in culture
"C=CC1=C(C)c2cc3[n-]c(cc4[n-]c(cc5nc(cc1n2)C(C)=C5C=C)c(C)c4CCC(=O)[O-])c(CCC(=O)[O-])c3C.[H+].[H+].[Mn+2] [Mn-PPIX, Manganese protoporphyrin IX]",diameter (mm) of the inhibition zone,[5],30 mm
same,diameter (mm) of the inhibition zone,[6],18 mm
same,diameter (mm) of the inhibition zone,"[7]; S. marcescens, disc ~50 μg MP",-
same,sensitive strains / strains tested (inhibition zones larger or equal 20 mm),"[7]; Serratia marcescens, 50 μg disc",2/3
same,diameter (mm) of the inhibition zone,"[8]; E. coli, disc ~50 μg MP",-
same,sensitive strains / strains tested (inhibition zones larger or equal 20 mm),"[8]; Escherichia coli, 50 μg disc",16/18
same,diameter (mm) of the inhibition zone,"[9]; P. mirabilis, disc ~50 μg MP",22 mm
same,sensitive strains / strains tested (inhibition zones larger or equal 20 mm),"[9]; Proteus mirabilis, 50 μg disc",2/2
same,diameter (mm) of the inhibition zone,"[10]; K. pneumoniae, disc ~50 μg MP",-
same,sensitive strains / strains tested (inhibition zones larger or equal 20 mm),"[10]; Klebsiella pneumoniae, 50 μg disc",9/13
same,diameter (mm) of the inhibition zone,"[11]; K. oxytoca, disc ~50 μg MP",-
same,sensitive strains / strains tested (inhibition zones larger or equal 20 mm),"[11]; Klebsiella oxytoca, 50 μg disc",1/1
same,diameter (mm) of the inhibition zone,[12],-
same,diameter (mm) of the inhibition zone,"[13]; C. freundii, disc ~50 μg MP",22 mm
same,sensitive strains / strains tested (inhibition zones larger or equal 20 mm),"[13]; Citrobacter freundii, 50 μg disc",4/4
same,diameter (mm) of the inhibition zone,"[14]; E. aerogenes, disc ~50 μg MP",-
same,sensitive strains / strains tested (inhibition zones larger or equal 20 mm),"[14]; Enterobacter aerogenes, 50 μg disc",1/1
same,diameter (mm) of the inhibition zone,"[15]; F. meningosepticum, disc ~50 μg MP",17 mm
same,sensitive strains / strains tested (inhibition zones larger or equal 20 mm),"[15]; Flavobacterium meningosepticum, 50 μg disc",1/1
same,diameter (mm) of the inhibition zone,"[16]; S. aureus, disc ~50 μg MP",23 mm
same,sensitive strains / strains tested (inhibition zones larger or equal 20 mm),"[16]; Staphylococcus aureus, 50 μg disc",9/9
same,diameter (mm) of the inhibition zone,[17],25 mm
same,diameter (mm) of the inhibition zone,[18],-
same,diameter (mm) of the inhibition zone,[19],-
same,diameter (mm) of the inhibition zone,[20],25 mm
same,diameter (mm) of the inhibition zone,[21],35 mm
same,diameter (mm) of the inhibition zone,[22],-
same,diameter (mm) of the inhibition zone,[23],-
same,diameter (mm) of the inhibition zone,[24],-
same,sensitive strains / strains tested (inhibition zones larger or equal 20 mm),[25],1/1
same,sensitive strains / strains tested (inhibition zones larger or equal 20 mm),[26],1/1
same,Minimal inhibitory concentration (MIC),[1],0.4
same,antibacterial activity,[1],inhibitory
same,MIC,[2]; S. aureus 8325-4 (Table 4),1 µg/mL
same,MIC,"[2]; S. aureus 8325-4 (Table 6), in µg/mL",3
same,MIC,"[2]; S. aureus 8325-4, 20 to 24 hours (Table 5)",3 µg/mL
same,Minimal inhibitory concentration (MIC),"[2]; methicillin-resistant S. aureus IR219, Nutrient broth (Table 2)",3.2 µg/mL
same,antibacterial activity,[3],inhibitory
same,MIC,[3]; M. smegmatis LR222 (Table 4),0.5 µg/mL
same,Minimal inhibitory concentration (MIC),"[3]; M. smegmatis LR222, LB + Tween 80 (Table 2)",0.8 µg/mL
same,MIC,[27]; Y. pseudotuberculosis YP66 (Table 4),< 0.1 µg/mL
same,MIC,"[27]; Y. pseudotuberculosis YP66 (Table 6), in µg/mL",1-2
same,MIC,"[27]; Y. pseudotuberculosis, iron restricted NBD 0.1 mM, 20 to 24 hours (Table 5)",1 to 2 µg/mL
same,MIC,"[28]; N. meningitidis IR1072, 20 to 24 hours (Table 5)",2 µg/mL
same,MIC,[28]; Neisseria meningitidis (Table 4),2 µg/mL
same,MIC,"[29]; B. subtilis 3G18, 20 to 24 hours (Table 5)",1 µg/mL
same,MIC,[29]; Bacillus subtilis (Table 4),1 µg/mL
same,sensitivity,[30]; S. pyogenes,resistant
same,MIC,[30]; S. pyogenes JRS4 (Table 4),> 4 µg/mL
same,MIC,"[30]; S. pyogenes JRS4, 20 to 24 hours (Table 5)",> 4 µg/mL
same,MIC,[31]; M. bovis (BCG) (Table 4),0.8 µg/mL
same,MIC,"[31]; M. bovis (BCG), two weeks (Table 5)",0.8 µg/mL
same,MIC,[32],> 10 µg/mL
same,inhibition of growth,[33],inhibited growth
"O=[N+]([O-])[O-].O=[N+]([O-])[O-].O=[N+]([O-])[O-].[Ga+3] [gallium nitrate, Gallium nitrate]",major complication of treatment,[34],Reversible nephrotoxicity
